Reference: US9011880B2, “Compounds and methods for treating cancer” (IGF Oncology, LLC, priority 2003, dated 2015)
Where two headings read alike, the source gives them in different places.

Tests used:
[1] = tested on: MDA-MB-231 breast cancer cells; conditions: cells incubated with insulin; cited from earlier work
[2] = tested on: FSAII tumors; assay: FSAII tumor growth in vivo in mice; parameters: species or system mouse; conditions: intraperitoneally, days 0, 2 and 5
Procedure: FSAII testing. Six-week old female mice were injected subcutaneously in the thigh with 200,000 FSAII cells each in serum-free medium. Tumors were allowed to grow until they reached an average volume of 100 mm^3 (calculated as length×breadth^2). At that time, treatment was initiated. […] A fifth group of mice was untreated controls. Each group contained five mice. Mice were treated on days 0, 2, and 5. Tumor growth was measured every second day.

[3] = tested on: MCF7-L tumors; assay: MCF7-L xenograft tumor growth in nu/nu mice; assay type: in vivo, mouse; conditions: day 22; IGF-MTX 10 nmol of MTX/g or free MTX 40 nmol/g, tail vein, days 0 and 5
Procedure: MCF7 cells (human breast adenocarcinoma cell line) were grown in Eagle's minimal essential medium supplemented with 0.1 mg/ml insulin and 10% FCS. The estrogen-dependent MCF7-L cell line was a gift from Deepali Sachdev of the University of Minnesota. MCF7-L cells were grown in modified IMEM medium (Invitrogen, Carlsbad, Calif., USA) supplemented with 0.1 mg/ml insulin. LNCaP cells (metastatic human prostatic adenocarcinoma) were grown in RPMI supplemented with glutamine and 10% FCS (Invitrogen, Carlsbad, Calif., USA). Cells were grown at 37° C. in a 5% CO2 humidified atmosphere. In each case, cells were grown to approximately two-thirds confluence, harvested by trypsinization, washed with rich medium and then washed twice with PBS and resuspended in phosphate buffered saline in BD matrigel matrix (Becton Dickinson, Franklin Lakes, N.J., USA). Cells were injected intradermally in mice on the back. An estrogen pellet (0.5 mg estradiol, 60-day release, Innovative Research of America, Sarasota, Fla., USA) was implanted subcutaneously between the shoulder blades two days before implanting MCF7 and MCF7-L cells. MCF7 and MCF7-L cells were implanted in 8-week-old female nu/nu mice. LNCaP cells were implanted in 8-week-old male nu/nu mice. […] MTX was dissolved in PBS. Untreated vehicle controls received 2 mM HCl, 1% glycerol. […]

[4] = tested on: LNCAP cells; assay: In vitro proliferation assay, LNCaP (Example 8); assay type: cell-based, human
Procedure: LNCaP, MCF7 and MCF7-L cell lines were plated, respectively, in a 96-well plate at 5,000 cells per well in RPMI+glutamine+10% FCS medium in 100 μl. After 24 hours, 100 μl fresh medium was added containing no drug (control), IGF-MTX or MTX at the indicated concentration.

[5] = humans, cited from earlier work
[6] = tested on: breast cancer cells; conditions: administered with insulin; cited from earlier work
[7] = tested on: LNCAP tumors; assay type: in vivo, mouse; conditions: days 0, 4, 8, 18, 22 and 26
Procedure: LNCAP testing. Eight-week old athymic male mice (nu/nu) were injected subcutaneously in the thigh with 1 million LNCAP cells in serum-free medium. Tumors were allowed to grow until they reached an average size of 100 mm^3. […] A fifth group of mice was untreated controls.

[8] = tested on: LNCAP cells; assay: LNCAP proliferation in vitro (Example 5, cell counting kit-8)
Procedure: LNCAP cells were plated in a 96-well plate at 3,000 cells per well in RPMI medium supplemented with 10% fetal bovine serum (FBS). After incubation overnight, the medium in the wells was replaced with 100 μl per well of RPMI supplemented with 0.1% FBS. […] After incubation for 4 days, cell proliferation was assayed with the cell counting kit-8 (Dojindo Molecular Technologies, Gaithersburg, Md.).

[9] = tested on: mouse fibrosarcoma cell line FSAII; assay: In vitro growth inhibition of FSAII cells (cell-counting kit-8); assay type: cell-based; conditions: minimal medium, 2 nM to 2 μM, 72 hours
Procedure: In vitro growth inhibition. […] The cells were grown in a 5% CO2 atmosphere at 37° C. in 100 cm^2 plastic tissue culture dishes (20 ml medium). Cells were passed every 4-6 days and seeded at 2×10^6 cells per plate. Cells were harvested by washing once in Hank's balanced salt solution, and then digesting with 3 ml of trypsin-EDTA for 3-10 minutes until cells had detached. Trypsinization was stopped by adding rich medium. The harvested cells were washed by centrifugation and resuspended in rich medium, and then plated in a 96-well plate at 12,000 cells per well in rich medium. Plates were incubated in the rich medium 16 hours and then transferred to minimal medium (100 μl/well), which lacked serum and thus lacked insulin and IGF and other growth factors. Minimal medium was RPMI supplemented with 10 μg/ml transferrin (iron-loaded) and 200 μg/ml bovine serum albumin. […] Each condition was tested in triplicate. After 72 hours incubation at 37° C., cell proliferation was assayed by the cell-counting kit-8, based on tetrazolium dye reduction, similar to the MTT assay (Dojindo Molecular Technologies, Gaithersburg, Md.).

[10] = tested on: breast cancer cells; conditions: cells incubated with insulin; cited from earlier work
[11] = tested on: MCF7 tumors; assay: MCF7 xenograft tumor growth in nu/nu mice; assay type: in vivo, mouse; conditions: 40 nmol/g intravenous, days 0, 4 and 8; 12 days of observation
Procedure: (§1) MCF7 cells (human breast adenocarcinoma cell line) were grown in Eagle's minimal essential medium supplemented with 0.1 mg/ml insulin and 10% FCS. The estrogen-dependent MCF7-L cell line was a gift from Deepali Sachdev of the University of Minnesota. MCF7-L cells were grown in modified IMEM medium (Invitrogen, Carlsbad, Calif., USA) supplemented with 0.1 mg/ml insulin. LNCaP cells (metastatic human prostatic adenocarcinoma) were grown in RPMI supplemented with glutamine and 10% FCS (Invitrogen, Carlsbad, Calif., USA). Cells were grown at 37° C. in a 5% CO2 humidified atmosphere. In each case, cells were grown to approximately two-thirds confluence, harvested by trypsinization, washed with rich medium and then washed twice with PBS and resuspended in phosphate buffered saline in BD matrigel matrix (Becton Dickinson, Franklin Lakes, N.J., USA). Cells were injected intradermally in mice on the back. An estrogen pellet (0.5 mg estradiol, 60-day release, Innovative Research of America, Sarasota, Fla., USA) was implanted subcutaneously between the shoulder blades two days before implanting MCF7 and MCF7-L cells. MCF7 and MCF7-L cells were implanted in 8-week-old female nu/nu mice. LNCaP cells were implanted in 8-week-old male nu/nu mice. […] MTX was dissolved in PBS. Untreated vehicle controls received 2 mM HCl, 1% glycerol. Drug was administered intravenously by tail-vein injection in a volume of 12.5 μl per gram mouse weight. All studies were approved by the University of Minnesota Animal Care and Use Committee and conformed to relevant ethical guidelines.
Three in vivo studies were performed to assess the targeting of MTX with long-R3-IGF-1. In the initial preliminary study, breast cancer MCF7 cells were implanted intradermally in the backs of nude mice.

[12] = IGF-MTX- and MTX-related toxicity in mice (ill effects, body weight); conditions: mice implanted with MCF7-L cells, n = 5/group
Procedure: as §1

[13] = low dose 15 μmoles/kg methotrexate

SMILES: Cc1c2ccncc2c(C)c2c1[nH]c1ccccc12 [elipticine]
- stimulation of uptake [1]: 2 fold

SMILES: CN(Cc1cnc2nc(N)nc(N)c2n1)c1ccc(C(=O)N[C@@H](CCC(=O)O)C(=O)O)cc1 [methotrexate]
- effect on FSAII tumor growth ([2]; high dose 60 μmoles/kg methotrexate): Neither the high or low dose of methotrexate had any apparent effect
- effect on FSAII tumor growth [2, 13]: Neither the high or low dose of methotrexate had any apparent effect
- MCF7-L tumor growth inhibition [3]: inhibited about equally
- inhibition of proliferation at highest tested concentration ([4]; 2000 nM): significantly greater inhibition than IGF-MTX
- inhibition of proliferation compared to untreated control cells ([4]; LNCaP): inhibited proliferation of LNCaP cells
- IC50 ([4]; free MTX, LNCaP, RPMI + 10% FCS, 48 hours with drug, IGF-MTX as concentration of MTX groups): ~400 nM
- maximum safe dosage ([5]; cumulative per 3 weeks): about 500 micromoles per meter squared per 3 weeks
- minimum effective dosage ([5]; lowest dosage usually used): about 130 micromoles per meter squared per 3 weeks
- factor of lower methotrexate concentration for the same percent cell killing than methotrexate alone [6]: 10^4
- effect on LNCAP tumor growth ([7]; high dose 40 μmoles/kg methotrexate): appeared to have no effect
- effect on LNCAP tumor growth [7, 13]: appeared to have no effect
- Cell number (relative units) ([8]; Minimal med. (0.1% FBS), MTX conc. 2 nM): .653 ± .046 relative units
- Cell number (relative units) ([8]; Minimal med. (0.1% FBS), MTX conc. 8 nM): .737 ± .043 relative units
- Cell number (relative units) ([8]; Minimal med. (0.1% FBS), MTX conc. 32 nM): .994 ± .226 relative units
- Cell number (relative units) ([8]; Minimal med. (0.1% FBS), MTX conc. 125 nM): .835 ± .048 relative units
- Cell number (relative units) ([8]; Minimal med. (0.1% FBS), MTX conc. 500 nM): .706 ± .051 relative units
- Cell number (relative units) ([8]; Minimal med. (0.1% FBS), MTX conc. 2000 nM): 0.418 ± .026 relative units
- Cell number (relative units) ([8]; Rich medium (10% FBS), MTX conc. 2 nM): 0.724 ± .015 relative units
- Cell number (relative units) ([8]; Rich medium (10% FBS), MTX conc. 8 nM): 0.596 ± .071 relative units
- Cell number (relative units) ([8]; Rich medium (10% FBS), MTX conc. 32 nM): 1.017 ± .033 relative units
- Cell number (relative units) ([8]; Rich medium (10% FBS), MTX conc. 125 nM): 0.223 ± .012 relative units
- Cell number (relative units) ([8]; Rich medium (10% FBS), MTX conc. 500 nM): 0.163 ± .009 relative units
- minimal inhibitory concentration ([8]; minimal medium containing 0.1% serum): about 2000 nM
- minimal inhibitory concentration ([8]; rich medium containing 10% serum): about 125 nM
- inhibition of FSAII proliferation [9]: inhibited FSAII proliferation
- stimulation of uptake [10]: 50%
- MCF7 tumor growth [11]: tumors continued to grow
- Average weight of mice, Day 4 [12]: 19.5 g
- Average weight of mice, Day 20 [12]: 20.8 g
- Average weight of mice, Day 0 ([12]; measured immediately before treatment): 19.2 g
